The record followed here is PubChem BioAssay (NCI).

Test in all cases: NCI anticancer screen, dose series, 48 h
The test system of assay [1] is SK-MEL-28 melanoma.
Assay [2] has as its system NCI-H460 lung.
Assay [3] concerns NCI/ADR-RES ovarian.
The subject of assay [4] is COLO 205 colon.
The test system of assay [5] is HCT-15 colon.
For assay [6], the system named is M14 melanoma.
The test system of assay [7] is NCI-H522 lung.
Assay [8] has as its system A549 NSCLC.
Assay [9] concerns HCC-2998 colon.
For assay [10], the system named is SK-MEL-5 melanoma.

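Five compound concentrations were applied to cells in 96-well plates for 48 hours; endpoints were derived by simple linear interpolation of the resulting dose-response curve. TGI: concentration producing complete growth inhibition.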

Consider `C=C(C)[C@@H]1CCC2=C[C@H](OC2=O)[C@@]2(C)C[C@@H]2C2=CC(C)=C(O2)[C@H]1O`, for which the TGI in assay [1], in [2], in [3], in assay [4], in [5] and in assay [6] was greater than 75 µM in each case. The TGI is 48.2 µM in assay [7], greater than 75 µM in assay [8] and greater than 75 µM in assay [9].
With `COc1ccc2nc(-c3ccc(O)cc3)sc2c1`, the TGI in assay [2] was greater than 100 µM; in assay [3] it was 72.6 µM; in assay [4], 44.6 µM; in assay [5] it was 36.5 µM; in assay [10], 38 µM; in [6], 47.5 µM. In addition, the TGI is 31.2 µM in assay [7] and greater than 100 µM in assay [8].
Regarding `Cc1ccccc1S(=O)(=O)Nn1cnc2ccc(S(=O)(=O)Nc3ccc(Cl)cc3)cc2c1=O`, the TGI in assay [1], in [2], in [3], in assay [4], in assay [5] and in assay [6] was greater than 100 µM in each case. The TGI in assay [7], in assay [8] and in assay [9] was greater than 100 µM throughout.
For `OC(c1cc(C23CC4CC(CC(C4)C2)C3)nc2c(Cl)cc(Cl)cc12)C1CCCCN1` (stereo unspecified), the TGI stood at 3.13 µM in assay [2], 3.13 µM in assay [6], 3.33 µM in assay [7] and 3.08 µM in [8].
For the compound `CC(C)(C)OC(=O)N1C(c2cccnc2)=CC[C@H]2C3CC=C(c4cccnc4)[C@@]3(C)CC[C@@H]21` (stereo partly specified), the TGI was 14.1 µM in assay [2]; 34.9 µM in assay [3]; 3.19 µM in assay [4]; 13.8 µM in [5]; 4.18 µM in [10]; 17.7 µM in [6]. For the same compound, the figures for the TGI in assay [7] and in assay [8] were 11.9 µM and 12.2 µM, respectively.
With `COc1cc(/C=c2\sc3n(c2=O)C(c2ccc(Cl)cc2)C2=C(CCCC2C)N=3)cc(OC)c1OC` (stereo unspecified), the TGI in assay [1], in [5], in [10], in [6] and in [8] was greater than 100 µM in each case.
`CC(=O)O[C@H]1C(=O)[C@@]2(C)C(C(OC(=O)c3ccccc3)C3[C@@H](O)C(OC(=O)[C@@H](O)[C@H](NC(=O)c4ccccc4)c4ccc(C(F)(F)F)cc4)C(C)=C1C3(C)C)[C@]1(OC(C)=O)CO[C@@H]1C[C@@H]2O` (stereo partly specified): the TGI in [1], in assay [2], in assay [4], in [5], in assay [10] and in assay [6] was greater than 25 µM each time. Moreover, the TGI in [7] is 21.1 µM; in assay [8] it was greater than 25 µM; in assay [9], greater than 25 µM.
For `Oc1ccc(-c2nc3ccc(Cl)cc3s2)cc1`, the TGI in assay [2] is 36.1 µM; in assay [3], 57.1 µM; in [4] it was 32.3 µM; in assay [5], 31.1 µM; in assay [10], 35.7 µM; in [6], greater than 100 µM. Further, the TGI in assay [7] is 31.7 µM; in assay [8], 45.2 µM.
In the case of `Cn1c(-c2cccc([N+](=O)[O-])c2)[n+](C)c2ccccc21`, the TGI in assay [1], in assay [2], in assay [3], in assay [4], in [5] and in assay [10] was greater than 100 µM throughout. For the same compound, the TGI in [6], in assay [8] and in [9] was greater than 100 µM each time.
Consider `Cc1cc2c([nH]c3ccccc32)c2c1OC(C)(C)C1C3CC(C)(C)Oc4c(C)cc5c6ccccc6n(c5c43)C21` (stereo unspecified), for which the TGI in [1], in assay [2], in assay [4], in assay [5], in assay [10] and in assay [6] was greater than 100 µM throughout. Further, the TGI in assay [7], in [8] and in assay [9] was greater than 100 µM each time.
Take `CCOC(=O)c1ccc(NCC#CCN2CCCCC2)cc1`: the TGI in assay [1], in assay [3], in [4], in assay [5], in assay [10] and in assay [6] was greater than 100 µM throughout. The compound also showed a TGI in assay [8] greater than 100 µM.
Consider `Oc1ccc2c(c1)-c1c(c3ccccc3n1CCN1CCOCC1)CC2`, for which the TGI is greater than 100 µM in [2]; 95.3 µM in [3]; greater than 100 µM in [4]; greater than 100 µM in [5]; greater than 100 µM in assay [10]; 88 µM in assay [6].
With `C=C1CCC([N+](=O)[O-])[C@](C)(N=O)CC[C@@H]2C1CC2(C)C` (stereo partly specified), the TGI was 39.6 µM in [2]; 82 µM in assay [3]; 60.5 µM in [4]; 65.4 µM in assay [5]; 28.6 µM in assay [10]; greater than 100 µM in assay [6]. Moreover, the TGI worked out at 49.1 µM in [7] and 36 µM in assay [8].
Consider `O=C1Oc2cc(O)cc(/C=C/c3ccc(O)cc3)c2[C@@]12c1c(O)cc(O)cc1OC2c1cccc(O)c1` (stereo partly specified), for which the TGI is greater than 100 µM in assay [1]; 59.6 µM in assay [2]; greater than 100 µM in assay [3]; 69.7 µM in assay [4]; greater than 100 µM in [5]; 43.3 µM in assay [10]. The results for the TGI in assay [6], in assay [8] and in [9] were greater than 100 µM, greater than 100 µM and 46.2 µM, respectively.
As for `CC(=O)O[C@H]1[C@H](OC(=O)CC(C)(O)CC(=O)O)C[C@]2(C)C3=C(CCC2C1(C)C)[C@]1(C)CC[C@H]([C@H]2CC[C@H](C(C)(C)O)OC2O)[C@@]1(C)[C@@H](O)C3` (stereo partly specified), the TGI is 31.5 µM in [1]; 28.6 µM in assay [2]; greater than 100 µM in assay [3]; 34.9 µM in assay [5]; 30.9 µM in assay [10]; 33.4 µM in assay [6]. Further, the results for the TGI in [8] and in assay [9] were 98 µM and 31.7 µM, respectively.
